# Molecular target: T1, human M1 receptor (hCHRM1) (Homo sapiens, UniProt P11229)
# T1 construct: expressed in transfected cells; host or cells: CHO-K1
# T1 sequence (P11229 1-460): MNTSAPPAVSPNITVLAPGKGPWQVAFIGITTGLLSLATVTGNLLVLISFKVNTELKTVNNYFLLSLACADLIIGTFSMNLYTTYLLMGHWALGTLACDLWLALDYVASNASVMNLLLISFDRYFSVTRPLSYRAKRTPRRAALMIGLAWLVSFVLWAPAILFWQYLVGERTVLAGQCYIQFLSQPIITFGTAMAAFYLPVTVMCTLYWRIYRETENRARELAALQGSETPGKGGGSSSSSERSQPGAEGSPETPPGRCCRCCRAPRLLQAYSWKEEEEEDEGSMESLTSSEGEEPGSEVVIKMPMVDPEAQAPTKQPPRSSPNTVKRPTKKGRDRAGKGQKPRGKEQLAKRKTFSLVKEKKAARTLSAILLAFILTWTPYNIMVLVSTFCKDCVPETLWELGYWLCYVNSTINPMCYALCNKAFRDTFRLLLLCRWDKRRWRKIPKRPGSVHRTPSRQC
# Assay: Measurement of M1 receptor positive allosteric modulator (M1PAM) activity, calcium fluorescence (FLIPRtetra) in CHO-K1 cells in the presence of acetylcholine at EC20
# Type: cell-based
# Conditions: in the presence of acetylcholine at EC20 (final 0.6 nM), CHO-K1 cells expressing hCHRM1; for EC50: inflection point of M1PAM activity, read-out: IP value; for activity (%) at 10 μM: test compound 10 μM
# Procedure, shortened: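 CHO-K1 cells expressing human M1 were loaded with Fluo-4 AM, and compound was added with acetylcholine at EC20 (final 0.6 nM). Calcium fluorescence was read on FLIPRtetra for 1 min. Activity was normalized to 1 μM acetylcholine (100%) and DMSO (0%), and the curve inflection point was reported as IP.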
EC50 [nM],activity (%) at 10 μM [%],SMILES
7.1,109,"CC(O)c1ccc(Oc2nccc3c2C(=O)N(Cc2ccc(-c4cnn(C)c4)cc2)C3)c(F)c1 (stereo not drawn) [Example 394, 4-(2-fluoro-4-(1-hydroxyethyl)phenoxy)-2-(4-(1-methyl-1H-pyrazol-4-yl)benzyl)-1,2-dihydro-3H-pyrrolo[3,4-c]pyridin-3-one]"
57,102,"Cc1nn(C)cc1-c1ccc(CN2Cc3ccnc(OC4CCC4)c3C2=O)cc1 [Example 403, 4-(cyclobutyloxy)-2-(4-(1,3-dimethyl-1H-pyrazol-4-yl)benzyl)-1,2-dihydro-3H-pyrrolo[3,4-c]pyridin-3-one]"
31,90,"Cn1cc(-c2ccc(CN3Cc4cccc(Oc5c(F)cccc5C#N)c4C3=O)cc2)cn1 [Example 6, 3-fluoro-2-((2-(4-(1-methyl-1H-pyrazol-4-yl)benzyl)-3-oxo-2,3-dihydro-1H-isoindol-4-yl)oxy)benzonitrile]"
26,107,"NC(=O)c1ccc(CN2Cc3ccnc(Oc4ccc(C5CC5)cc4F)c3C2=O)cc1F [Example 446, 4-((4-(4-cyclopropyl-2-fluorophenoxy)-3-oxo-1,3-dihydro-2H-pyrrolo[3,4-c]pyridin-2-yl)methyl)-2-fluorobenzamide]"
80,100,"Cn1cc(-c2ccc(CN3Cc4cccc(Oc5cccnc5C#N)c4C3=O)cc2)cn1 [Example 20, 3-((2-(4-(1-methyl-1H-pyrazol-4-yl)benzyl)-3-oxo-2,3-dihydro-1H-isoindol-4-yl)oxy)pyridine-2-carbonitrile]"
7.5,89,"O=C1c2c(cccc2O[C@H]2CCCC[C@@H]2O)CN1Cc1ccc(-n2cccn2)cc1 (relative stereo) [Example 29, 7-((trans-2-hydroxycyclohexyl)oxy)-2-(4-(1H-pyrazol-1-yl)benzyl)isoindolin-1-one]"
85,107,"Cl.N#Cc1cccc(F)c1Oc1cccc2c1C(=O)N(Cc1ccc(-c3ccn[nH]3)cc1)C2 [Example 42, 3-fluoro-2-((3-oxo-2-(4-(1H-pyrazol-5-yl)benzyl)-2,3-dihydro-1H-isoindol-4-yl)oxy)benzonitrile hydrochloride]"
34,93,"Cn1cc(-c2ccc(CN3Cc4cccc(Oc5c(Cl)cccc5C#N)c4C3=O)cc2)cn1 [Example 9, 3-chloro-2-((2-(4-(1-methyl-1H-pyrazol-4-yl)benzyl)-3-oxo-2,3-dihydro-1H-isoindol-4-yl)oxy)benzonitrile]"
9.1,95,"Cc1cn(-c2ccc(CN3Cc4ccnc(Oc5ccc(C(F)(F)F)cc5F)c4C3=O)cc2)cn1 [Example 418, 4-(2-fluoro-4-(trifluoromethyl)phenoxy)-2-(4-(4-methyl-1H-imidazol-1-yl)benzyl)-1,2-dihydro-3H-pyrrolo[3,4-c]pyridin-3-one]"
52,92,"CCNC(=O)c1ccc(CN2Cc3ccnc(Oc4ccc(C(F)(F)F)cc4F)c3C2=O)cc1 [Example 432, N-ethyl-4-((4-(2-fluoro-4-(trifluoromethyl)phenoxy)-3-oxo-1,3-dihydro-2H-pyrrolo[3,4-c]pyridin-2-yl)methyl)benzamide]"
39,103,"O=C1c2c(cccc2O[C@@H]2CCOC[C@H]2O)CN1Cc1ccc(Br)cc1 (single isomer, unassigned) [Example 268, 1,5-anhydro-3-O-(2-(4-bromobenzyl)-3-oxo-2,3-dihydro-1H-isoindol-4-yl)-2-deoxy-threo-pentitol]"

SMILES,EC50 [nM],activity (%) at 10 μM [%]
"CCC(O)COc1cccc2c1C(=O)N(Cc1ccc(-c3cnn(C)c3)cc1)C2 (stereo not drawn) [Example 261, 7-(2-hydroxybutoxy)-2-(4-(1-methyl-1H-pyrazol-4-yl)benzyl)isoindolin-1-one]",25,98

# From US9777005B2 (Takeda Pharmaceutical Company Limited, priority 2012, dated 2017)
